Experimental findings from the NIST ThermoML archive (doi:10.1021/acs.jced.8b00070) are described below.

The conditions of this data set: 101.3 kPa, Liquid, Vibrating tube method.

± gives the expanded uncertainty stated by the source.

Usually mass density stands for the mass of a sample divided by its volume. Consider `O` [water], for which the mass density by setting is: (323.15 K) 988 ± 0.2 kg/m3; (328.15 K) 985.7 ± 0.2 kg/m3; (333.15 K) 983.2 ± 0.2 kg/m3.
